Experimental data taken from patent publication US9809853B2, “Calcium-activated chloride channel involved in human sweat formation” (BRAIN Biotechnology Research and Information Network AG, priority 2012, dated 2017).

Target: T1, TMEM16A(acΔe3) (Homo sapiens, UniProt Q5XXA6)
T1 construct: expressed in transfected cells
T1 sequence (Q5XXA6 1-927 isoform Q5XXA6-4): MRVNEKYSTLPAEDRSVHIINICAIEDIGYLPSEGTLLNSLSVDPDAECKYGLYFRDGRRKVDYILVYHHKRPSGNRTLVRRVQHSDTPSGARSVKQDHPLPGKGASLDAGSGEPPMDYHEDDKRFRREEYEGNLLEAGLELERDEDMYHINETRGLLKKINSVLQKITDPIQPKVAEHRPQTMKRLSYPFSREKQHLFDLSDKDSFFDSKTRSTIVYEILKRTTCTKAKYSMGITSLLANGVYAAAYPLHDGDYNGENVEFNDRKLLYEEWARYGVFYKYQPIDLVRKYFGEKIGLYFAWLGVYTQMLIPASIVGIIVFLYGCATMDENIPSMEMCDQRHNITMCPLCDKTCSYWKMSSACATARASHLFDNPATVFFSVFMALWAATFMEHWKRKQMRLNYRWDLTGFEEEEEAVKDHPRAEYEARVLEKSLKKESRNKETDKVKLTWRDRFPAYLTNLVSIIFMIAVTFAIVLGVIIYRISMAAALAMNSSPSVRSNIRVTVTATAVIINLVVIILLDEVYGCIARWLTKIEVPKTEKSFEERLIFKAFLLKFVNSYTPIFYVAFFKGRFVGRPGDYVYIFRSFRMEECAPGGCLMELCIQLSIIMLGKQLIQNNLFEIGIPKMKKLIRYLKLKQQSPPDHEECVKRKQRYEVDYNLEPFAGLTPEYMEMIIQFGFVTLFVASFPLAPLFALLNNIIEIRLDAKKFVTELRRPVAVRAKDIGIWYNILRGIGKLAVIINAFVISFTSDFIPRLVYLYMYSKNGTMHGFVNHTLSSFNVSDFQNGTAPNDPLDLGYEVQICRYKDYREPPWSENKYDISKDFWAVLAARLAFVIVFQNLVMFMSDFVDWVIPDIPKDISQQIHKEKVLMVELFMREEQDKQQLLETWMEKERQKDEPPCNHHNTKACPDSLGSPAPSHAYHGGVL
Test: hsYFP quenching assay in NCL-SG3-hsYFP-TMEM16A(acΔe3) cells
Type: cell-based
Details: 330 μM ATP; for Effect of pretreatment on hsYFP quenching / Ca^2+-dependent Cl^− secretion after ATP: cells overexpressing TMEM16A(acΔe3)
Procedure: NCL-SG3-hsYFP, NCL-SG 3-hsYFP-TMEM16A(ac) and NCL-SG3-hsYFP-TMEM16A(acΔe3) cells were untreated (basal activity) or stimulated with ATP (330 μM). Quenching of hsYFP fluorescence was determined. The rate of I^− influx (sec^−1) was calculated from the initial slope of measured hsYFP fluorescence (ΔYFP fluorescence/Δtime) and is a direct measure of CaCC activity. For better comparison fold changes compared to basal activity of parental cells are shown. […] All influx rate differences are higly statistically significant, except the basal influx rate of parental and TMEM16A(ac) overexpressing NCL-SG3-hsYFP cells (Student's t-test, two-tailed; *** p-value<0.0001).
TMEM16A(ac) and TMEM16A(acΔe3) are present in human eccrine sweat glands and were therefore obtained by RT-PCR amplification using TRIzol® (Invitrogen) extracted RNA from freshly isolated human eccrine sweat glands using oligonucleotides (forward 5′-[…]; reverse 5′-[…]) SEQ ID NOS: 5 and 6 , which amplify full-length TMEM16A, and subsequently cloned into the proprietary eukaryotic gene expression plasmid (pEF1α-TMEM16A(ac) and pEF1α-TMEM16A(acΔe3), FIG. 6A). […] Both genes are coupled by an internal ribosomal entry site (IRES) to enable efficient translation of both open reading frames located on the same mRNA. […]
Taken together, NCL-SG3-hsYFP cells can be used to monitor Ca^2+-dependent Cl^− fluxes, which represent the initial step in primary sweat formation in sweat gland cells. […] Microplates were transferred into an automated fluorescence plate reader (FlexStation®, Molecular Devices) and cellular hsYFP fluorescence was continuously recorded every 3.5 sec until end of the experiment (excitation at 485 nm, emission at 535 nm, cutoff 515 nm). […] NCL-SG3-hsYFP cells allow quantitative evaluation of in vivo Cl^− channel activity (FIGS. 9 and 10D). To determine the exact rate of Cl^− efflux/I^− influx the hsYFP fluorescence was plotted against time (ΔYFP fluorescence/Δtime). […]

Effect of pretreatment on hsYFP quenching / Ca^2+-dependent Cl^− secretion after ATP	Effect of pretreatment on hsYFP quenching / Ca^2+-dependent Cl^− secretion after ATP (listed as tannic acid)	SMILES	ATP-induced activity (I^− influx rate, fold) (TMEM16A(acΔe3) overexpressing cells)
significant reduction of hsYFP quenching	inhibited	O=C(OC[C@H]1O[C@@H](OC(=O)c2cc(O)c(O)c(OC(=O)c3cc(O)c(O)c(O)c3)c2)[C@H](OC(=O)c2cc(O)c(O)c(OC(=O)c3cc(O)c(O)c(O)c3)c2)[C@@H](OC(=O)c2cc(O)c(O)c(OC(=O)c3cc(O)c(O)c(O)c3)c2)[C@@H]1OC(=O)c1cc(O)c(O)c(OC(=O)c2cc(O)c(O)c(O)c2)c1)c1cc(O)c(O)c(OC(=O)c2cc(O)c(O)c(O)c2)c1 [TA, tannic acid]	–
–	–	Nc1ncnc2c1ncn2[C@@H]1O[C@H](COP(=O)(O)OP(=O)(O)OP(=O)(O)O)[C@@H](O)[C@H]1O [ATP]	2 fold
